Laboratory results published in PMC4537157 (PLoS ONE, 2015).
One block for each molecule: values may come before it.

Tests used:
Type in all cases: cell-based
[1] = system: human newborn cord blood; assay: Whole blood cytokine assay (TNF, IL-1β ELISA), newborn cord blood; conditions: 6 h
Experimental: (§1) Assessment of TLRA activity in whole blood was completed as previously described. […] Vehicle (DMSO) was added separately as a control. Suspensions containing 200 μl/well were gently mixed by pipetting and incubating for 6 h at 37°C in a humidified incubator at 5% CO2. After culture, plates were centrifuged at 500 x g and 100–150 μl of supernatant was carefully removed by pipetting without disturbing the cell pellet. Supernatants derived from human leukocyte stimulations were assayed by enzyme-linked immunoabsorbent assay (ELISA) for TNF (BD Biosciences, San Jose, CA, USA) and IL-1β (eBiosciences, San Diego, CA). Experiments were performed in triplicates.
(§2) Compound concentrations are shown in μM. Data are shown as mean ± SEM of n = 6–8.
(§3) Compound concentrations are shown in μM/ml. Cytokine production is shown as pg/ml. (PDF) Click here for additional data file.

[2] = system: human adult peripheral blood; assay: Whole blood cytokine assay (TNF, IL-1β ELISA), adult peripheral blood; conditions: 6 h
Experimental: as §1, §2, §3

[3] = system: human newborn and adult leukocytes; assay: Whole blood and MoDC assays, overall potency as summarised in the discussion; conditions: Leukocyte, Tested in both whole blood and MoDC assays
Experimental: as §1

[4] = system: human newborn MoDCs; assay: TNF production by newborn monocyte-derived dendritic cells; conditions: human neonatal MoDCs, tested 0.1–10 μM, 24 h

SMILES: CCCCc1nc2c(N)nc3ccccc3c2n1Cc1cccc(CN)c1 [Meta-amine]
IL-1β production ([1]; 0.01 µM): 15.63 pg/mL
TNF-α production ([1]; 0.01 µM): 79.15 pg/mL
IL-1β production ([1]; 0.03 µM): 15.63 pg/mL
TNF-α production ([1]; 0.03 µM): 78.72 pg/mL
IL-1β production ([1]; 0.1 µM): 15.63 pg/mL
TNF-α production ([1]; 0.1 µM): 94.65 pg/mL
IL-1β production ([1]; 0.3 µM): 15.63 pg/mL
TNF-α production ([1]; 0.3 µM): 93.72 pg/mL
IL-1β production ([1]; 1 µM): 271.87 pg/mL
TNF-α production ([1]; 1 µM): 1779.40 pg/mL
IL-1β production ([1]; 10 µM): 6199.29 pg/mL
TNF-α production ([1]; 10 µM): 32214.43 pg/mL
IL-1β production ([2]; 0.01 µM): 15.63 pg/mL
TNF-α production ([2]; 0.01 µM): 23.44 pg/mL
IL-1β production ([2]; 0.03 µM): 15.63 pg/mL
TNF-α production ([2]; 0.03 µM): 23.44 pg/mL
IL-1β production ([2]; 0.1 µM): 15.63 pg/mL
TNF-α production ([2]; 0.1 µM): 20.83 pg/mL
IL-1β production ([2]; 0.3 µM): 15.63 pg/mL
TNF-α production ([2]; 0.3 µM): 214.57 pg/mL
IL-1β production ([2]; 1 µM): 232.86 pg/mL
TNF-α production ([2]; 1 µM): 3739.68 pg/mL
IL-1β production ([2]; 10 µM): 2699.66 pg/mL
TNF-α production ([2]; 10 µM): 19087.54 pg/mL

EC50 [3]: 1000 nM
SMILES: CCOCc1nc2c(N)nc3ccccc3c2n1CC(C)(C)O [R848, resiquimod, reference compound]
IL-1β production ([1]; 0.01 µM): 15.63 pg/mL
TNF-α production ([1]; 0.01 µM): 95.80 pg/mL
IL-1β production ([1]; 0.03 µM): 15.63 pg/mL
TNF-α production ([1]; 0.03 µM): 84.29 pg/mL
IL-1β production ([1]; 0.1 µM): 46.36 pg/mL
TNF-α production ([1]; 0.1 µM): 68.30 pg/mL
IL-1β production ([1]; 0.3 µM): 15.63 pg/mL
TNF-α production ([1]; 0.3 µM): 210.98 pg/mL
IL-1β production ([1]; 1 µM): 415.65 pg/mL
TNF-α production ([1]; 1 µM): 654.85 pg/mL
IL-1β production ([1]; 10 µM): 322.08 pg/mL
TNF-α production ([1]; 10 µM): 1574.58 pg/mL
IL-1β production ([2]; 0.01 µM): 15.63 pg/mL
TNF-α production ([2]; 0.01 µM): 23.44 pg/mL
IL-1β production ([2]; 0.03 µM): 15.63 pg/mL
TNF-α production ([2]; 0.03 µM): 23.44 pg/mL
IL-1β production ([2]; 0.1 µM): 14.94 pg/mL
TNF-α production ([2]; 0.1 µM): 284.13 pg/mL
IL-1β production ([2]; 0.3 µM): 15.63 pg/mL
TNF-α production ([2]; 0.3 µM): 549.52 pg/mL
IL-1β production ([2]; 1 µM): 191.49 pg/mL
TNF-α production ([2]; 1 µM): 3939.41 pg/mL
IL-1β production ([2]; 10 µM): 1922.12 pg/mL
TNF-α production ([2]; 10 µM): 19454.73 pg/mL
Concentration inducing TNF [4]: 1 to 10 µM

SMILES: CCCCc1nc2c(N)nc3ccccc3c2n1Cc1ccc(CN)cc1 [Para-amine]
IL-1β production ([1]; 0.01 µM): 15.63 pg/mL
TNF-α production ([1]; 0.01 µM): 64.05 pg/mL
IL-1β production ([1]; 0.03 µM): 15.63 pg/mL
TNF-α production ([1]; 0.03 µM): 120.31 pg/mL
IL-1β production ([1]; 0.1 µM): 15.63 pg/mL
TNF-α production ([1]; 0.1 µM): 70.49 pg/mL
IL-1β production ([1]; 0.3 µM): 15.63 pg/mL
TNF-α production ([1]; 0.3 µM): 381.52 pg/mL
IL-1β production ([1]; 1 µM): 387.41 pg/mL
TNF-α production ([1]; 1 µM): 1780.16 pg/mL
IL-1β production ([1]; 10 µM): 2820.52 pg/mL
TNF-α production ([1]; 10 µM): 16542.73 pg/mL
IL-1β production ([2]; 0.01 µM): 15.63 pg/mL
TNF-α production ([2]; 0.01 µM): 23.44 pg/mL
IL-1β production ([2]; 0.03 µM): 15.63 pg/mL
TNF-α production ([2]; 0.03 µM): 121.74 pg/mL
IL-1β production ([2]; 0.1 µM): 15.63 pg/mL
TNF-α production ([2]; 0.1 µM): 856.34 pg/mL
IL-1β production ([2]; 0.3 µM): 15.63 pg/mL
TNF-α production ([2]; 0.3 µM): 3653.12 pg/mL
IL-1β production ([2]; 1 µM): 419.70 pg/mL
TNF-α production ([2]; 1 µM): 6740.50 pg/mL
IL-1β production ([2]; 10 µM): 2008.09 pg/mL
TNF-α production ([2]; 10 µM): 18165.00 pg/mL
